Experimental data as given in patent US20060173062A1, “Use of selective cyclooxygenase-2 inhibitors for the treatment of endometriosis” (priority 2003, published 2006).

System: rat uterine horn implants in the peritoneal cavity
Experiment: Rat model for endometriosis
Assay type: in vivo
Conditions: 14 days; for implant volume: FIG. 1; for implant weight: FIG. 2
Description: FIG. 1 compares the mean volume of rat uterine horn implants in the peritoneal cavity of rats before and after 14 days of administration of a cyclooxygenase-2-selective inhibitor.
FIG. 2 compares the in mean weight of rat uterine horn implants in the peritoneal cavity of rats before and after 14 days of administration of a cyclooxygenase-2-selective inhibitor.
Rat Model for Endometriosis:
In this model 5×5 mm sections of rat uterine hom are implanted in the peritoneal cavity (extra uterine endometrial wall) of subject rats. Four weeks after transplantation of the endometrial tissues, rats were anesthetized with Telazol (20 mg/kg, IP, Fort Dodge Animal Health, Fort Dodge, Iowa), Oxymorphone (0.2 mg/kg SC, Henry Schein, Melville, N.Y.) and immobilized on a standard rat operating board. The surgical site was shaved and cleaned using three cycles of Betadine/alcohol or DuraPrep® (3M, St. Paul, Minn.). Using aseptic technique, an incision was made through the skin, SC and muscle layers. The growth of the explant was evaluated for size and acceptance/rejection. On gross examination, the endometrial implants appeared as uni-loculated (occasional as multilobulated) cystic masses filled with clear/light yellowish or dark brown serous fluid. In some instances, at the time of 2nd laparotomy, partial or complete adhesions from connective tissue, mesentry, and bowel to the implants were noted. In those instances, a careful separation was executed, avoiding the rupture the implants. While having a clear vision of the implants, the length, width and height of the implant was measured using a sterile Jameson Caliper (BRI, Rockville, Md.), and documented. The abdominal incisions were closed by using 4-0 chromic gut (Ethicon). The rats were observed until fully ambulatory.
More animals than required for the study were used for surgery. After the 2nd laparotomy, animals were assigned to control or treated groups in an attempt to equalize the endometrium implant size between groups. The rats bearing implant with clear/light yellowish fluid were used in study group selection. The rats bearing implant with dark brown fluid considered as hemorrhagic solid mass were excluded from the study.
Treatment with selected drug therapy started after 1 day of post-surgical recovery. Rats were given the test compound, the cyclooxygenase-2 selective inhibitor Compound A, or vehicle alone or Raloxifene (10 mpk) or Lupron Depot (1 mpk) for a period of 14 days. At the end of the 14-day treatment period, the animals were euthanized at pro-estrus cycle which was confirmed by vaginal smear. Necropsy involved opening the abdomen and evaluating the implant size. The implant and right uterine horn were excised for wet weighing.
Compound A has the following structure: [drawing 1] […]

For `CS(=O)(=O)c1ccc(C2COC(=O)C2c2ccc(F)c(F)c2)cc1` (stereo not shown) [Compound A], the implant volume (1 mpk, BID by oral gavage) was “not significant at the 95 percent confidence level”, the implant weight (1 mpk, BID by oral gavage) was “not significant at the 95 percent confidence level” and the implant volume (10 mpk, BD by oral gavage) was “reduce implant volume and weight to a significant degree at the 95 percent confidence level”. For the same molecule, the implant weight (10 mpk, BD by oral gavage) was “reduce implant volume and weight to a significant degree at the 95 percent confidence level”.
